How the values were obtained:
Type in all cases: in vivo
[1] = tested on: barnyardgrass (Echinochloa crus-galli); assay: Test A preemergence soil spray, visual injury rating 0-100; details: 10 days
How it was run: (§1)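 Seeds sown in loam-sand blend got a preemergence directed soil spray, or emerged plants (2-10 cm, one- to two-leaf) got a postemergence spray, of compound in non-phytotoxic solvent with surfactant. After 10 days in greenhouse, injury rated visually versus untreated controls on a 0 (no effect) to 100 (complete control) scale.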

[2] = tested on: blackgrass (Alopecurus myosuroides); assay: as above; details: 10 days
How it was run: as §1

corn (Zea mays) [3] = assay: as above; details: 10 days
How it was run: as §1

[4] = tested on: green foxtail (Setaria viridis); assay: as above; details: 10 days
How it was run: as §1

kochia (Bassia scoparia) [5] = assay: as above; details: 10 days
How it was run: as §1

[6] = tested on: oat, wild (wild oat, Avena fatua); assay: as above; details: 10 days
How it was run: as §1

[7] = tested on: palmer (palmer amaranth, palmer pigweed, Amaranthus palmeri); assay: as above; details: 62 g ai/ha, 10 days, 0 = no effect, 100 = complete control
How it was run: as §1

[8] = tested on: ragweed (common ragweed, Ambrosia artemisiifolia); assay: as above; details: 10 days
How it was run: as §1

[9] = tested on: ryegrass, Italian (italian ryegrass, Lolium multiflorum); assay: as above; details: 10 days
How it was run: as §1

soybean (Glycine max) [10] = assay: as above; details: 10 days
How it was run: as §1

[11] = tested on: wheat (Triticum aestivum); assay: as above; details: 10 days
How it was run: as §1

[12] = tested on: barnyardgrass (Echinochloa crus-galli); assay: Test A postemergence application, visual injury rating 0-100
How it was run: as §1

[13] = tested on: blackgrass (Alopecurus myosuroides); assay: as above
How it was run: as §1

corn (Zea mays) [14] = assay: as above
How it was run: as §1

[15] = tested on: galium (catchweed bedstraw, Galium aparine); assay: as above
How it was run: as §1

[16] = tested on: green foxtail (Setaria viridis); assay: as above
How it was run: as §1

[17] = tested on: horseweed (Erigeron canadensis); assay: as above
How it was run: as §1

kochia (Bassia scoparia) [18] = assay: as above
How it was run: as §1

[19] = tested on: oat, wild (wild oat, Avena fatua); assay: as above
How it was run: as §1

[20] = tested on: palmer (palmer amaranth, palmer pigweed, Amaranthus palmeri); assay: as above
How it was run: as §1

[21] = tested on: ragweed (common ragweed, Ambrosia artemisiifolia); assay: as above
How it was run: as §1

[22] = tested on: ryegrass, Italian (italian ryegrass, Lolium multiflorum); assay: as above
How it was run: as §1

soybean (Glycine max) [23] = assay: as above
How it was run: as §1

[24] = tested on: wheat (Triticum aestivum); assay: as above
How it was run: as §1

[25] = tested on: barnyardgrass (Echinochloa crusgalli); assay: Test B flooded paddy test, visual plant response rating 0-100; details: 250 g ai/ha, Flood, applied to paddy water, evaluated after 13 days
How it was run: (§2)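 Visual evaluation after 13 days. Water-applied treatment, 3 cm flood depth held constant, plants at 2-leaf stage at treatment.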

[26] = tested on: ducksalad (Heteranthera limosa); assay: as above; details: 250 g ai/ha, Flood, applied to paddy water, evaluated after 13 days
How it was run: as §2

rice (Oryza sativa) = assay: as above; details: 250 g ai/ha, Flood, applied to paddy water, evaluated after 13 days
How it was run: as §2

[27] = tested on: sedge, umbrella (small-flower umbrella sedge, Cyperus difformis); assay: as above; details: 250 g ai/ha, Flood, applied to paddy water, evaluated after 13 days
How it was run: as §2

[28] = 62 g ai/ha, 0 = no effect, 100 = complete control
[29] = 62 g ai/ha, postemergence, 10 days, 0 = no effect, 100 = complete control
[30] = Postemergence, 16 g ai/ha, greenhouse 10 days, 0 no effect, 100 complete control

COC(=O)C1=CCC(NC(=O)C2(C)CN(c3cc(F)cc(Cl)c3)C(=O)O2)C1 (stereo not drawn) [Compound 140]
Barnyardgrass plant response rating ([1]; 16 g ai/ha, 0 to 100 scale): 50 | Barnyardgrass plant response rating (0-100) [1, 28]: 100 | Blackgrass plant response rating ([2]; 16 g ai/ha, 0 to 100 scale): 0 | Blackgrass plant response rating (0-100) [2, 28]: 50 | Corn plant response rating (corn (Zea mays) [3]; 16 g ai/ha, 0 to 100 scale): 10 | Corn plant response rating (0-100) (corn (Zea mays) [3]; [28]): 60 | Foxtail, Green plant response rating ([4]; 16 g ai/ha, 0 to 100 scale): 80 | Foxtail, Green plant response rating (0-100) [4, 28]: 90 | Kochia plant response rating (kochia (Bassia scoparia) [5]; 16 g ai/ha, 0 to 100 scale): 50 | Kochia plant response rating (0-100) (kochia (Bassia scoparia) [5]; [28]): 100 | Oat, Wild plant response rating ([6]; 16 g ai/ha, 0 to 100 scale): 20 | Oat, Wild plant response rating (0-100) [6, 28]: 20 | Pigweed, Palmer plant response rating (0-100) [7]: 90 | Ragweed plant response rating ([8]; 16 g ai/ha, 0 to 100 scale): 0 | Ragweed plant response rating (0-100) [8, 28]: 0 | Ryegrass, Italian plant response rating ([9]; 16 g ai/ha, 0 to 100 scale): 50 | Ryegrass, Italian plant response rating (0-100) [9, 28]: 90 | Soybean plant response rating (soybean (Glycine max) [10]; 16 g ai/ha, 0 to 100 scale): 0 | Soybean plant response rating (0-100) (soybean (Glycine max) [10]; [28]): 80 | Wheat plant response rating ([11]; 16 g ai/ha, 0 to 100 scale): 40 | Wheat plant response rating (0-100) [11, 28]: 80 | Barnyardgrass plant response rating (0-100) [12, 29]: 100 | Barnyardgrass plant response rating (0 to 100 scale) [12, 30]: 100 | Blackgrass plant response rating (0-100) [13, 29]: 100 | Blackgrass plant response rating (0 to 100 scale) [13, 30]: 90 | Corn plant response rating (0-100) (corn (Zea mays) [14]; [29]): 100 | Corn plant response rating (0 to 100 scale) (corn (Zea mays) [14]; [30]): 100 | Galium plant response rating (0-100) [15, 29]: 90 | Galium plant response rating (0 to 100 scale) [15, 30]: 70 | Foxtail, Green plant response rating (0-100) [16, 29]: 90 | Foxtail, Green plant response rating (0 to 100 scale) [16, 30]: 90 | Horseweed plant response rating (0-100) [17, 29]: 90 | Horseweed plant response rating (0 to 100 scale) [17, 30]: 80 | Kochia plant response rating (0-100) (kochia (Bassia scoparia) [18]; [29]): 90 | Kochia plant response rating (0 to 100 scale) (kochia (Bassia scoparia) [18]; [30]): 90 | Oat, Wild plant response rating (0-100) [19, 29]: 90 | Oat, Wild plant response rating (0 to 100 scale) [19, 30]: 60 | Pigweed, Palmer plant response rating (0-100) [20, 29]: 80 | Pigweed, Palmer plant response rating (0 to 100 scale) [20, 30]: 60 | Ragweed plant response rating (0-100) [21, 29]: 70 | Ragweed plant response rating (0 to 100 scale) [21, 30]: 50 | Ryegrass, Italian plant response rating (0-100) [22, 29]: 80 | Ryegrass, Italian plant response rating (0 to 100 scale) [22, 30]: 60 | Soybean plant response rating (0-100) (soybean (Glycine max) [23]; [29]): 70 | Soybean plant response rating (0 to 100 scale) (soybean (Glycine max) [23]; [30]): 70 | Wheat plant response rating (0-100) [24, 29]: 90 | Wheat plant response rating (0 to 100 scale) [24, 30]: 80 | Plant response rating, Barnyardgrass (0 to 100 scale, 0 is no effect and 100 is complete control) [25]: 85 | Plant response rating, Ducksalad (0 to 100 scale, 0 is no effect and 100 is complete control) [26]: 65 | Plant response rating, Rice (0 to 100 scale, 0 is no effect and 100 is complete control) (rice (Oryza sativa)): 65 | Plant response rating, Sedge, Umbrella (0 to 100 scale, 0 is no effect and 100 is complete control) [27]: 100
